Experimental data reported in the NIST ThermoML archive (doi:10.1016/j.jct.2004.09.021).
Numbers after ± are expanded uncertainties.

Experiments:
[1] = xn = mol fraction of the nth substance listed; conditions: 101 kPa, Liquid
[2] = refractive index (Na D-line) (dimensionless); xn = mol fraction of the nth substance listed; conditions: 101 kPa, Liquid

COc1ccccc1 [anisole] + CCCCCCCCC gave a mass density ([1]; 293.15 K, x1 = 0.1003) of 737.55 ± 2.8 kg/m3, a viscosity ([1]; 293.15 K, x1 = 0.1003) of 0.7027 ± 0.012 mPa·s and a mass density ([1]; 293.15 K, x1 = 0.1991) of 752.72 ± 2.7 kg/m3. For the same compound, the viscosity ([1]; 293.15 K, x1 = 0.1991) was 0.6975 ± 0.012 mPa·s, the mass density ([1]; 293.15 K, x1 = 0.2995) was 776.9 ± 2.5 kg/m3 and the viscosity ([1]; 293.15 K, x1 = 0.2995) was 0.7043 ± 0.013 mPa·s. The mass density ([1]; 293.15 K, x1 = 0.3997) was 795.17 ± 2.3 kg/m3, the viscosity ([1]; 293.15 K, x1 = 0.3997) was 0.7127 ± 0.013 mPa·s and the mass density ([1]; 293.15 K, x1 = 0.4998) was 819.75 ± 2.1 kg/m3. The viscosity ([1]; 293.15 K, x1 = 0.4998) was 0.7381 ± 0.013 mPa·s, the mass density ([1]; 293.15 K, x1 = 0.5907) was 844.35 ± 1.9 kg/m3 and the viscosity ([1]; 293.15 K, x1 = 0.5907) was 0.7718 ± 0.013 mPa·s. It also gave a mass density ([1]; 293.15 K, x1 = 0.6975) of 876.64 ± 1.7 kg/m3, a viscosity ([1]; 293.15 K, x1 = 0.6975) of 0.8298 ± 0.014 mPa·s and a mass density ([1]; 293.15 K, x1 = 0.8008) of 911.95 ± 1.4 kg/m3. The viscosity ([1]; 293.15 K, x1 = 0.8008) was 0.9049 ± 0.015 mPa·s, the mass density ([1]; 293.15 K, x1 = 0.898) was 949.42 ± 1.2 kg/m3 and the viscosity ([1]; 293.15 K, x1 = 0.898) was 0.9871 ± 0.017 mPa·s. For the same compound, the mass density ([1]; 293.15 K, x1 = 1) was 993.81 ± 0.85 kg/m3, the viscosity ([1]; 293.15 K, x1 = 1) was 1.085 ± 0.018 mPa·s and the mass density ([1]; 298.15 K, x1 = 0.1003) was 730.48 ± 2.8 kg/m3. The viscosity ([1]; 298.15 K, x1 = 0.1003) was 0.6663 ± 0.012 mPa·s, the mass density ([1]; 298.15 K, x1 = 0.1991) was 748.56 ± 2.7 kg/m3 and the viscosity ([1]; 298.15 K, x1 = 0.1991) was 0.6588 ± 0.012 mPa·s. For the same compound, the mass density ([1]; 298.15 K, x1 = 0.2995) was 768.71 ± 2.5 kg/m3, the viscosity ([1]; 298.15 K, x1 = 0.2995) was 0.662 ± 0.012 mPa·s and the mass density ([1]; 298.15 K, x1 = 0.3997) was 790.9 ± 2.4 kg/m3. For the same compound, the viscosity ([1]; 298.15 K, x1 = 0.3997) was 0.6693 ± 0.012 mPa·s, the mass density ([1]; 298.15 K, x1 = 0.4998) was 815.37 ± 2.2 kg/m3 and the viscosity ([1]; 298.15 K, x1 = 0.4998) was 0.6982 ± 0.012 mPa·s. It also gave a mass density ([1]; 298.15 K, x1 = 0.5907) of 839.87 ± 2 kg/m3, a viscosity ([1]; 298.15 K, x1 = 0.5907) of 0.7299 ± 0.013 mPa·s and a mass density ([1]; 298.15 K, x1 = 0.6975) of 872.08 ± 1.7 kg/m3. The viscosity ([1]; 298.15 K, x1 = 0.6975) was 0.7801 ± 0.014 mPa·s, the mass density ([1]; 298.15 K, x1 = 0.8008) was 907.24 ± 1.5 kg/m3 and the viscosity ([1]; 298.15 K, x1 = 0.8008) was 0.8452 ± 0.015 mPa·s. The mass density ([1]; 298.15 K, x1 = 0.898) was 944.51 ± 1.2 kg/m3, the viscosity ([1]; 298.15 K, x1 = 0.898) was 0.9159 ± 0.016 mPa·s and the mass density ([1]; 298.15 K, x1 = 1) was 989.15 ± 0.88 kg/m3. It also gave a viscosity ([1]; 298.15 K, x1 = 1) of 1.017 ± 0.017 mPa·s, a mass density ([1]; 303.15 K, x1 = 0.1003) of 726.35 ± 2.9 kg/m3 and a viscosity ([1]; 303.15 K, x1 = 0.1003) of 0.6209 ± 0.011 mPa·s. The mass density ([1]; 303.15 K, x1 = 0.1991) was 744.37 ± 2.7 kg/m3, the viscosity ([1]; 303.15 K, x1 = 0.1991) was 0.6172 ± 0.011 mPa·s and the mass density ([1]; 303.15 K, x1 = 0.2995) was 764.41 ± 2.6 kg/m3. The viscosity ([1]; 303.15 K, x1 = 0.2995) was 0.6139 ± 0.011 mPa·s, the mass density ([1]; 303.15 K, x1 = 0.3997) was 786.51 ± 2.4 kg/m3 and the viscosity ([1]; 303.15 K, x1 = 0.3997) was 0.6315 ± 0.011 mPa·s. For the same compound, the mass density ([1]; 303.15 K, x1 = 0.4998) was 810.88 ± 2.2 kg/m3, the viscosity ([1]; 303.15 K, x1 = 0.4998) was 0.6485 ± 0.012 mPa·s and the mass density ([1]; 303.15 K, x1 = 0.5907) was 835.33 ± 2 kg/m3. For the same compound, the viscosity ([1]; 303.15 K, x1 = 0.5907) was 0.6758 ± 0.012 mPa·s, the mass density ([1]; 303.15 K, x1 = 0.6975) was 867.39 ± 1.8 kg/m3 and the viscosity ([1]; 303.15 K, x1 = 0.6975) was 0.7158 ± 0.013 mPa·s. For the same compound, the mass density ([1]; 303.15 K, x1 = 0.8008) was 902.38 ± 1.5 kg/m3, the viscosity ([1]; 303.15 K, x1 = 0.8008) was 0.7771 ± 0.014 mPa·s and the mass density ([1]; 303.15 K, x1 = 0.898) was 939.7 ± 1.2 kg/m3. For the same compound, the viscosity ([1]; 303.15 K, x1 = 0.898) was 0.8365 ± 0.015 mPa·s, the mass density ([1]; 303.15 K, x1 = 1) was 984.42 ± 0.91 kg/m3 and the viscosity ([1]; 303.15 K, x1 = 1) was 0.9285 ± 0.016 mPa·s. The refractive index ([2]; 293.15 K, x1 = 0.116) was 1.4119 ± 0.0009, the refractive index ([2]; 293.15 K, x1 = 0.218) was 1.4191 ± 0.0009 and the refractive index ([2]; 293.15 K, x1 = 0.32) was 1.4276 ± 0.0009. For the same compound, the refractive index ([2]; 293.15 K, x1 = 0.413) was 1.4361 ± 0.0009, the refractive index ([2]; 293.15 K, x1 = 0.4989) was 1.4448 ± 0.0009 and the refractive index ([2]; 293.15 K, x1 = 0.5907) was 1.4553 ± 0.001. The refractive index ([2]; 293.15 K, x1 = 0.673) was 1.466 ± 0.001, the refractive index ([2]; 293.15 K, x1 = 0.782) was 1.4811 ± 0.001 and the refractive index ([2]; 293.15 K, x1 = 0.8965) was 1.4984 ± 0.001. The refractive index ([2]; 293.15 K, x1 = 1) was 1.5161 ± 0.0009, the refractive index ([2]; 298.15 K, x1 = 0.116) was 1.4103 ± 0.0009 and the refractive index ([2]; 298.15 K, x1 = 0.218) was 1.4173 ± 0.0009. It also gave a refractive index ([2]; 298.15 K, x1 = 0.32) of 1.4257 ± 0.0009, a refractive index ([2]; 298.15 K, x1 = 0.413) of 1.4343 ± 0.0009 and a refractive index ([2]; 298.15 K, x1 = 0.4989) of 1.443 ± 0.0009. For the same compound, the refractive index ([2]; 298.15 K, x1 = 0.5907) was 1.4534 ± 0.0009, the refractive index ([2]; 298.15 K, x1 = 0.673) was 1.4639 ± 0.0009 and the refractive index ([2]; 298.15 K, x1 = 0.782) was 1.4789 ± 0.0009. For the same compound, the refractive index ([2]; 298.15 K, x1 = 0.8965) was 1.4961 ± 0.0009, the refractive index ([2]; 298.15 K, x1 = 1) was 1.5141 ± 0.0009 and the refractive index ([2]; 303.15 K, x1 = 0.116) was 1.4074 ± 0.001. The refractive index ([2]; 303.15 K, x1 = 0.218) was 1.4148 ± 0.0009, the refractive index ([2]; 303.15 K, x1 = 0.32) was 1.4234 ± 0.0009 and the refractive index ([2]; 303.15 K, x1 = 0.413) was 1.432 ± 0.0009. The refractive index ([2]; 303.15 K, x1 = 0.4989) was 1.4409 ± 0.0009, the refractive index ([2]; 303.15 K, x1 = 0.5907) was 1.4515 ± 0.0009 and the refractive index ([2]; 303.15 K, x1 = 0.673) was 1.4619 ± 0.0009. It also gave a refractive index ([2]; 303.15 K, x1 = 0.782) of 1.4771 ± 0.0009, a refractive index ([2]; 303.15 K, x1 = 0.8965) of 1.4944 ± 0.0008 and a refractive index ([2]; 303.15 K, x1 = 1) of 1.5129 ± 0.0009.
